For experiment [1], the target named is extended human kinome (kinase-like proteins) (Homo sapiens, UniProt Q16875). Kind of experiment: Whole cell quantitative proteomics: extended kinome hits. The conditions noted are these: Accession Q16875; experiment wp134.
Experiment [2] deals with protein kinases (human kinome). It counts as cell-based. The following applies: for kinases the bifunctional compound degrades: as stated for the structure in the embodiments; for Kinase hits: kinases significantly downregulated vs DMSO (fold change cutoff −1.25, P-value<0.01), ≤8 h, 0.1-5 μM degrader, 7 cell lines; for Total no. kinase hits: number of degraded kinases per library compound.

Experiment [3] concerns the target protein kinases (human kinome) (Homo sapiens, UniProt P51451). The class given is cell-based. The following applies: for logFC BLK: BLK (P51451), direction down; for logFC of BLK (P51451): down.
Experiment [4] concerns the target protein kinases (human kinome) (Homo sapiens, UniProt P53671). It counts as cell-based. The following applies: experiment wp152.
Experiment [5] addresses protein kinases (human kinome) (Homo sapiens, UniProt Q9H0K1). The class given is cell-based. The following applies: experiment wp134.
Experiment [6] has as its target protein kinases (human kinome) (Homo sapiens, UniProt P35790). It counts as cell-based. The conditions noted are these: CHKA P35790; experiment wp152.
In experiment [7] the target is protein kinases (human kinome) (Homo sapiens, UniProt O43683). It counts as cell-based. The conditions noted are these: for logFC: BUB1 (O43683); for logFC BUB1 (O43683): direction down.
Sequence of protein kinases (human kinome) (Homo sapiens, UniProt O43683) (O43683 whole entry): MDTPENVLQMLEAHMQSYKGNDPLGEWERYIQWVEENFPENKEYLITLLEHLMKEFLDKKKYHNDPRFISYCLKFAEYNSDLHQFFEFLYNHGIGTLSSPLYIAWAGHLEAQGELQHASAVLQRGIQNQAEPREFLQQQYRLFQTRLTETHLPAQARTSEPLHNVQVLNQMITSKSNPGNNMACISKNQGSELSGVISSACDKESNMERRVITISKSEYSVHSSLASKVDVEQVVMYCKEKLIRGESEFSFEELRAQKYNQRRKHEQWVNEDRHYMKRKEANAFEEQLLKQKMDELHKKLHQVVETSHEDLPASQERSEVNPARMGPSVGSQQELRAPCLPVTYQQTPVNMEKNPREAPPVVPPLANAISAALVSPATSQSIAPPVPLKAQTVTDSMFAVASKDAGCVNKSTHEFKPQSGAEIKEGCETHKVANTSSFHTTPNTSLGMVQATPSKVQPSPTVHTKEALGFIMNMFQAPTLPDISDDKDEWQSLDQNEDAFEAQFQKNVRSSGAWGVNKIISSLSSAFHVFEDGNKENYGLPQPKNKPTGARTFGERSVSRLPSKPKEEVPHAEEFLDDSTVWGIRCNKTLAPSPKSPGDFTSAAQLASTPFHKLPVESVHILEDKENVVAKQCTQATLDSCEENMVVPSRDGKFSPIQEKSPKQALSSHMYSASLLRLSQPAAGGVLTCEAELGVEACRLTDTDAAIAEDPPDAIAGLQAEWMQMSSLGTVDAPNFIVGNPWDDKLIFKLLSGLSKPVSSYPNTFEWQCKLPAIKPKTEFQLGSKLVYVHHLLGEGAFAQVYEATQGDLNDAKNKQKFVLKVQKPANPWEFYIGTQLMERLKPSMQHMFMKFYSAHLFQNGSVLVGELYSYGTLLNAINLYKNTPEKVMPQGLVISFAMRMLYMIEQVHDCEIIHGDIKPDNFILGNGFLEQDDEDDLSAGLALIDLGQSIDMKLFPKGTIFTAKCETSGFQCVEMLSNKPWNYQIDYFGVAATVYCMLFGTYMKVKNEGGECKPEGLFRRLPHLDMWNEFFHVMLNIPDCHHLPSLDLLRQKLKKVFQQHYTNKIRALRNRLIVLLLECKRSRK
Experiment [8] has as its target T1, protein kinases (human kinome) (Homo sapiens, UniProt Q9UEE5).
T1 sequence (Q9UEE5 1-414): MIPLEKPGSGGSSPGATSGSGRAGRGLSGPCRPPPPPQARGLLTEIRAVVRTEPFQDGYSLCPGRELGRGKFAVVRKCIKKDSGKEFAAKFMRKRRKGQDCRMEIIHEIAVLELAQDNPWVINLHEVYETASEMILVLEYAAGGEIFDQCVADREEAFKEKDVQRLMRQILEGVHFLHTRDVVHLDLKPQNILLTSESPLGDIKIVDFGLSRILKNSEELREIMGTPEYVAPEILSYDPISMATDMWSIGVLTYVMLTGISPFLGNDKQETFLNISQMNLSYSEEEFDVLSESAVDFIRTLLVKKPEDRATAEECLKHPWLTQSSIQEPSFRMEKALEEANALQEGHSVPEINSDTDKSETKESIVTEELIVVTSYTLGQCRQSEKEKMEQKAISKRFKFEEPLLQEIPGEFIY
The class given is cell-based. The following applies: STK17A Q9UEE5; experiment wp134.

Experiment [9] concerns the target protein kinases (human kinome) (Homo sapiens, UniProt Q07912). It counts as cell-based.
Experiment [10] addresses T2, protein kinases (human kinome) (Homo sapiens, UniProt Q8TAS1).
T2 sequence (Q8TAS1 1-419): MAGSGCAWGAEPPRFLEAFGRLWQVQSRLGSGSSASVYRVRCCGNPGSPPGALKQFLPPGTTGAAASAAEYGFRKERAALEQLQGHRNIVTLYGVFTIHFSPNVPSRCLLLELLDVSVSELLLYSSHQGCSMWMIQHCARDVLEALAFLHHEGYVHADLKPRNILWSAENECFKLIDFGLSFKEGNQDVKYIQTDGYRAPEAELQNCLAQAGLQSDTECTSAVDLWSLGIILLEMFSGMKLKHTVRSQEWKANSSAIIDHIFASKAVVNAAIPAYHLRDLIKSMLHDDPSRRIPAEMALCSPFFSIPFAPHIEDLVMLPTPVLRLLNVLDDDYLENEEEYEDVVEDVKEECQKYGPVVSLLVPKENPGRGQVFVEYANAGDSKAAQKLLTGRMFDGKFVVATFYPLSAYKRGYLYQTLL
It counts as cell-based. The conditions noted are these: experiment wp134.

Experiment [11] has as its target protein kinases (human kinome) (Homo sapiens, UniProt P11802). It counts as cell-based. The conditions noted are these: experiment wp152.
The target in experiment [12] is T3, protein kinases (human kinome) (Homo sapiens, UniProt P42680).
T3 sequence (P42680 1-631): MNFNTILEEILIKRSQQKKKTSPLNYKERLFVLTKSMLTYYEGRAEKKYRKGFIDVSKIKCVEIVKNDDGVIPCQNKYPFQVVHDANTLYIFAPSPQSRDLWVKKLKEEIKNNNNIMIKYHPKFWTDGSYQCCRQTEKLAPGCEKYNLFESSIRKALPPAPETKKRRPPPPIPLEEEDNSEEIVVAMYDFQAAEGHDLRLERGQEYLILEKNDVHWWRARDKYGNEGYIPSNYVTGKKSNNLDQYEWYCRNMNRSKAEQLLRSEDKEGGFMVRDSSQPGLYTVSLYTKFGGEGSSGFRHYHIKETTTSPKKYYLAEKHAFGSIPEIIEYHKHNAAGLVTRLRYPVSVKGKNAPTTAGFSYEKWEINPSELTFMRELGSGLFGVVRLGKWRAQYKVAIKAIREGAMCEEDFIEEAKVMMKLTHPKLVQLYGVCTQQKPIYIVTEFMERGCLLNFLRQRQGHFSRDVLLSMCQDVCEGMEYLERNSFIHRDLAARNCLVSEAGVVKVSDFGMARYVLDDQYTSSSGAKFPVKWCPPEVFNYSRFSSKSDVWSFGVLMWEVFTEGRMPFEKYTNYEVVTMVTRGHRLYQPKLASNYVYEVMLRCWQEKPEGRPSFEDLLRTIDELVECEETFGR
The class given is cell-based. The conditions noted are these: TEC (P42680), experiment wp134.

The test system of experiment [13] is protein kinases in MOLT-4 cells. Nature of the experiment: Whole cell quantitative proteomics in MOLT-4 cells. The following applies: MOLT-4, 1 μM, 5 h (FIG. 1J).
Description: Whole cell multiplexed quantitative proteomics was employed to measure changes in abundance of the proteome in response to treatment with each of the kinase degrader molecules relative to DMSO (Table 1, Appendix I).
Cells were treated with DMSO (biological triplicate) or degrader at indicated dose and time and cells were harvested by centrifugation. […] Precipitated protein was resuspended in 4 M Urea, 50 mM HEPES pH 7.4, followed by dilution to 1 M urea with the addition of 200 mM EPPS, pH 8. Proteins were first digested with LysC (1:50: enzyme:protein) for 12 hours at room temperature. The LysC digestion was diluted to 0.5 M Urea with 200 mM EPPS pH 8 followed by digestion with trypsin (1:50; enzyme:protein) for 6 hours at 37° C. Tandem mass tag (TMT) reagents (Thermo Fisher Scientific) were dissolved in anhydrous acetonitrile (ACN) according to manufacturer's instructions. […] The 10, 11, or 16-plex labeling reactions were performed for 1.5 hours at room temperature and the reaction quenched by the addition of hydroxylamine to a final concentration of 0.3% for 15 minutes at room temperature. The sample channels were combined at a 1:1 ratio, desalted using C18 solid phase extraction cartridges (Waters®) and analyzed by LC-MS for channel ratio comparison. Samples were then combined using the adjusted volumes determined in the channel ratio analysis and dried down in a speed vacuum. The combined sample was then resuspended in 1% formic acid, and acidified (pH 2-3) before being subjected to desalting with C18 SPE (Sep-Pak®, Waters®). Samples were then offline fractionated into 96 fractions by high pH reverse-phase HPLC (Agilent® LC1260) through an aeris peptide xb-c18 column (Phenomenex®) with mobile phase A containing 5% acetonitrile and 10 mM NH4HCO3 in LC-MS grade H2O, and mobile phase B containing 90% acetonitrile and 10 mM NH4HCO3 in LC-MS grade H2O (both pH 8.0). The 96 resulting fractions were then pooled in a non-continuous manner into 24 fractions and desalted using C18 solid phase extraction plates (SOLA®, Thermo Fisher Scientific) followed by subsequent mass spectrometry analysis.
Data were collected using an Orbitrap Fusion™ Lumos™ mass spectrometer (Thermo Fisher Scientific, San Jose, CA, USA) coupled with a Proxeon EASY-nLC™ 1200 LC pump (Thermo Fisher Scientific) or an Orbitrap Eclipse™ Tribrid™ mass spectrometer (Thermo Fisher Scientific, San Jose, CA, USA) coupled with an UltiMate™ 3000 RSLCnano System. Peptides were separated on an EasySpray™ ES803a/ES803a.rev2 75 μm inner diameter microcapillary column (ThermoFisher Scientific).
Data dependent MS2 spectra were acquired in the ion trap with a normalized collision energy (NCE) set at 35%, AGC target set to 1.8×10^4 and a maximum injection time of 120 ms. MS3 scans were acquired in the Orbitrap with HCD collision energy set to 55%. AGC target set to 2×10^5, maximum injection time of 150 ms, resolution at 50,000 and with a maximum synchronous precursor selection (SPS) precursors set to 10.
Proteome Discoverer™ 2.1, 2.2 or 2.4 (Thermo Fisher Scientific) was used for .RAW file processing and controlling peptide and protein level false discovery rates, assembling proteins from peptides, and protein quantification from peptides.
Experiment [14] concerns the target protein kinases (human kinome) (Homo sapiens, UniProt Q00537). It counts as cell-based.

Entries after “also recorded” stand apart in the source; their conditions may differ. Like-named read-outs stand apart in the source and are kept apart here.

Sequence of protein kinases (human kinome) (Homo sapiens, UniProt P51451) (P51451 whole entry): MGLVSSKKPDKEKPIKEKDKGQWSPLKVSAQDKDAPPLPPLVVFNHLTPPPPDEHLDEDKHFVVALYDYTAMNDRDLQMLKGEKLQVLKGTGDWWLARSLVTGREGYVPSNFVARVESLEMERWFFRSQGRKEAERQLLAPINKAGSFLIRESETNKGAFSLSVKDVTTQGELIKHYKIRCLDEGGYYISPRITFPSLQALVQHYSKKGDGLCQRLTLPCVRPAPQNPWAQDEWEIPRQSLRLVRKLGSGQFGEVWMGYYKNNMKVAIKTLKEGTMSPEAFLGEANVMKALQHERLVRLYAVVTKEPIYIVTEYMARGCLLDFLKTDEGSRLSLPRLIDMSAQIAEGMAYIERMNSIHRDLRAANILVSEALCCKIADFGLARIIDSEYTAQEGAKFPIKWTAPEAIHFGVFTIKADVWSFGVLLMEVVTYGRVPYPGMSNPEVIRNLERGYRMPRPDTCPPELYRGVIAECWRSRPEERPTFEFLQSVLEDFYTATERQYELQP
Sequence of protein kinases (human kinome) (Homo sapiens, UniProt Q07912) (Q07912 whole entry): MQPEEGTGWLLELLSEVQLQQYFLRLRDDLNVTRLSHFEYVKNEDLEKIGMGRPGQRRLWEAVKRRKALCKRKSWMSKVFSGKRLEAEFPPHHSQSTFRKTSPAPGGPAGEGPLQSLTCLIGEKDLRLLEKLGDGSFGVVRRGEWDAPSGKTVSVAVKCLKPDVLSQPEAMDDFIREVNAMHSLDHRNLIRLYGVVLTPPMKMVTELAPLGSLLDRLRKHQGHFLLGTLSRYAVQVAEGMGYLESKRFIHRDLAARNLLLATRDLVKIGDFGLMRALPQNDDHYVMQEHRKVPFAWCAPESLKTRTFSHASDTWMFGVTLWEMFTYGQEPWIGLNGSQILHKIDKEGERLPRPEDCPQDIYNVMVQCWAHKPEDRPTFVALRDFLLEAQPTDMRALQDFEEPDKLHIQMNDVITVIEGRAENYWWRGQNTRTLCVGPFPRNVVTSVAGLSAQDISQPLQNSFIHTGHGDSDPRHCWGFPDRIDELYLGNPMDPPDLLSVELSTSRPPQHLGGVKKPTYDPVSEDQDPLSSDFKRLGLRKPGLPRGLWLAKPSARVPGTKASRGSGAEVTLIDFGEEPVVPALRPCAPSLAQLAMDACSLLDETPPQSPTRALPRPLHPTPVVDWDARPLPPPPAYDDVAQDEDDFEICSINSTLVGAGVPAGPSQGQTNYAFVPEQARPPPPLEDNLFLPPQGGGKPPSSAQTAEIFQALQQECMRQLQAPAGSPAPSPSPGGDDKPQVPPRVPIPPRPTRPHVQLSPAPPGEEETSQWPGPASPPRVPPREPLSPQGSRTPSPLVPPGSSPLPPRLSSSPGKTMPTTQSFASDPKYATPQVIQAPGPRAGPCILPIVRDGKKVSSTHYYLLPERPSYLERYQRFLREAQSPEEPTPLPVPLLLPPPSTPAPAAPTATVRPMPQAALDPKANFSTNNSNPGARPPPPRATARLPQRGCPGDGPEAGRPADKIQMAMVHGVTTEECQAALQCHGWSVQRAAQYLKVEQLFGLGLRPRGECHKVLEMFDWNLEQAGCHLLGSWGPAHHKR
Sequence of protein kinases (human kinome) (Homo sapiens, UniProt P53671) (P53671 whole entry): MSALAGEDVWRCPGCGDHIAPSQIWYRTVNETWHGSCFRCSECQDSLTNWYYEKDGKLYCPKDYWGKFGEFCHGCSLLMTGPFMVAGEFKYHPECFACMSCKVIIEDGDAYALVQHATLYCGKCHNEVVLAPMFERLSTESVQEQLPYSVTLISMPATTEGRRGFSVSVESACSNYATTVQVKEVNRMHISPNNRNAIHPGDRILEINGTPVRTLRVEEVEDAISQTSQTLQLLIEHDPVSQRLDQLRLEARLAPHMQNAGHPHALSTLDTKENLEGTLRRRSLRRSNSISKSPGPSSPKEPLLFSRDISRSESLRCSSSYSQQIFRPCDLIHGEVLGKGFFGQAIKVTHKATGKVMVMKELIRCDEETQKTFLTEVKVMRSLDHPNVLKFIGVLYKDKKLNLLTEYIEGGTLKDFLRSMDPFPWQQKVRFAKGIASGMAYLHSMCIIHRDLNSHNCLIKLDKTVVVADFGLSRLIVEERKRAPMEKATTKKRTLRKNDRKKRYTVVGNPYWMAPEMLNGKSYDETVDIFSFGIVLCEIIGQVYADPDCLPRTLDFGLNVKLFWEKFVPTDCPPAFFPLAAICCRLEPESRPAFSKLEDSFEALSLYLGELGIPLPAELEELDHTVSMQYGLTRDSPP
Sequence of protein kinases (human kinome) (Homo sapiens, UniProt Q9H0K1) (Q9H0K1 whole entry): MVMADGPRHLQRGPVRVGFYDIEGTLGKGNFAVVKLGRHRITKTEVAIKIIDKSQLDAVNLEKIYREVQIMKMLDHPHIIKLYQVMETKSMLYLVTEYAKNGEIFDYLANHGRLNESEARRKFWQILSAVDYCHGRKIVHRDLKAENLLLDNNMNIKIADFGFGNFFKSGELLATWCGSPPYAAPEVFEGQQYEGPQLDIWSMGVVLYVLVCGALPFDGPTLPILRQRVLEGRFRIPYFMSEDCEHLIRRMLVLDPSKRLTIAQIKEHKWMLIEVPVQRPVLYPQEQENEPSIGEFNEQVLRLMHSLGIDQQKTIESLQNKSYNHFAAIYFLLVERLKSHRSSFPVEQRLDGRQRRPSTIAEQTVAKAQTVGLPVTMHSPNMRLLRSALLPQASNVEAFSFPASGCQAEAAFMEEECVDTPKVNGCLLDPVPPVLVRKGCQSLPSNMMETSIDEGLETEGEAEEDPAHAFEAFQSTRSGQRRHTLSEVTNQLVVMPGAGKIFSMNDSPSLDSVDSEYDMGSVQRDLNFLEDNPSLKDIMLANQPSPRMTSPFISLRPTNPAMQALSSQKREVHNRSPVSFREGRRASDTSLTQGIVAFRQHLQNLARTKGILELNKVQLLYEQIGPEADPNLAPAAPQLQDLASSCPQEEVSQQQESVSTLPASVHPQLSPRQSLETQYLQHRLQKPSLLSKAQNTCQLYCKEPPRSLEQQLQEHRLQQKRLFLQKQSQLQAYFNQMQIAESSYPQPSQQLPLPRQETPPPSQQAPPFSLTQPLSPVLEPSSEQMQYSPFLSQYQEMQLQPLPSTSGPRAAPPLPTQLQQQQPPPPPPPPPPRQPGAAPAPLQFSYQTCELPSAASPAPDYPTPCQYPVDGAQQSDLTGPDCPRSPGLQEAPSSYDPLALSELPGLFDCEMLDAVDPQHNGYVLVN
Sequence of protein kinases (human kinome) (Homo sapiens, UniProt P11802) (P11802 whole entry): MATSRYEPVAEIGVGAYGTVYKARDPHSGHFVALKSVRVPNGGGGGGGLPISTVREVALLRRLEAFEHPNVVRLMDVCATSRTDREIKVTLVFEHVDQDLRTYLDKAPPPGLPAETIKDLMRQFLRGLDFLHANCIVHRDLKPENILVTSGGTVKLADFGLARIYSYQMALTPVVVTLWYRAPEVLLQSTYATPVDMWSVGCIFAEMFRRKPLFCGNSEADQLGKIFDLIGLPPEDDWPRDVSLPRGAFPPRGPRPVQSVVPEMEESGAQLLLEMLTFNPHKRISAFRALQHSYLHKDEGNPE
Sequence of protein kinases (human kinome) (Homo sapiens, UniProt P35790) (P35790 whole entry): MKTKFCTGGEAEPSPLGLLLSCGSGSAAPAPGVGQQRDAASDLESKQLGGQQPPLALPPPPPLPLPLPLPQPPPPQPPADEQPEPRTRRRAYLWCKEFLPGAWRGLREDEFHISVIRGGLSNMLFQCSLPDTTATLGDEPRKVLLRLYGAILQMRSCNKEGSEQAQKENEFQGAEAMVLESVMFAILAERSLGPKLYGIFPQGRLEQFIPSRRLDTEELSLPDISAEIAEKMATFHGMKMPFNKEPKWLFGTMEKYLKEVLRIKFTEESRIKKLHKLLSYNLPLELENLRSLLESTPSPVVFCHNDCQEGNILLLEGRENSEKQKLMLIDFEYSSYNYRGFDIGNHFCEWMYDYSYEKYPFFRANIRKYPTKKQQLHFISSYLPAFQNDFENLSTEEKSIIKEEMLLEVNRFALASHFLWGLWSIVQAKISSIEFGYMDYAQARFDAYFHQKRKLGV

For the compound `CN[C@@H](C)C(=O)N[C@H](C(=O)N1CCC[C@H]1c1nc(C(=O)c2cccc(OCCCCCn3cc(CN4CCN(c5ccc(Nc6ncc7c(n6)N(C)C(=O)N(c6cc(NC(=O)c8cccc(C(F)(F)F)c8)ccc6C)C7)cn5)CC4)nn3)c2)cs1)C1CCCCC1` [DB118430], the “logFC PFKFB3” value in [1] was −0.4616. Also, the “kinases the bifunctional compound degrades” value in experiment [2] is “BLK, BUB1, CDK4, LIMK2, SIK2, STK17A, TEC, TNK2, and UHMK1”. Also, in [2], the Kinase hits entry is “BLK, BUB1, CDK4, LIMK2, SIK2, STK17A, TEC, TNK2, UHMK1”. Also, the “Total no. kinase hits” value in experiment [2] is on record as 9. Besides, the “logFC BLK” value in experiment [3] (experiment wp134) was −0.5826; in experiment [3] (experiment wp152), −0.9023. Moreover, the “logFC of BLK (P51451)” value is given as −0.5826 in experiment [3] (Experiment wp134) and −0.9023 in experiment [3] (Experiment wp152). In addition, in [4] (LIMK2 (P53671), down), the “logFC LIMK2” value is recorded as −0.4571. Further, the “logFC of LIMK2” value in experiment [4] (LIMK2 P53671) is recorded as −0.4571. Further, the “logFC of SIK2” value in experiment [5] (Accession Q9H0K1) is listed as −0.3803. Besides, the “logFC SIK2 (Q9H0K1)” value in [5] (direction of change down) is recorded as −0.3803. For the same compound, the logFC in [6] was −0.3601; in experiment [7] (experiment wp134), −0.3866; in experiment [7] (experiment wp152), −0.3814; in experiment [8] it was −0.3497; in [12], −0.5666; in experiment [12] (direction down) it was −0.5666. The figures for the “logFC BUB1 (O43683)” value in experiment [7] (Experiment wp134) and in experiment [7] (Experiment wp152) were −0.3866 and −0.3814, respectively. Further, the “logFC STK17A” value in experiment [8] is listed as −0.3497. Moreover, the “logFC TNK2 (Q07912-1)” value in experiment [9] (Experiment wp134, direction down) is on record as −0.575. The “logFC TNK2” value in experiment [9] (TNK2 (Q07912-1), experiment wp134) is −0.575. Moreover, the “logFC UHMK1” value in experiment [10] (Accession Q8TAS1, direction down) was −0.4944; in [10] (UHMK1 (Q8TAS1)), −0.4944. The “logFC CDK4 (P11802)” value in experiment [11] is listed as −0.3644.

On to `Cc1ncsc1-c1ccc([C@H](C)NC(=O)[C@@H]2C[C@@H](O)CN2C(=O)[C@@H](NC(=O)CCOCCOCCNc2nccc(-c3sc(C(C)(C)C)nc3-c3cccc(NS(=O)(=O)c4c(F)cccc4F)c3F)n2)C(C)(C)C)cc1` [DD-03-156, (2S,4R)-1-((S)-2-(3-(2-(2-((4-(2-(tert-butyl)-4-(3-((2,6-difluorophenyl)sulfonamido)-2-fluorophenyl)thiazol-5-yl)pyrimidin-2-yl)amino)ethoxy)ethoxy)propanamido)-3,3-dimethylbutanoyl)-4-hydroxy-N—((S)-1-(4-(4-methylthiazol-5-yl)phenyl)ethyl)pyrrolidine-2-2377 carboxamide], for which the “degradation profile (potency and selectivity)” value in experiment [13] was “potent and selective degradation of only CDK17 and LIMK2; also recorded: exquisite”. In [2], the “kinases the bifunctional compound degrades” value was “CDK17, LIMK1, and LIMK2”; the Kinase hits entry is “CDK17, LIMK1, LIMK2”; the “Total no. kinase hits” value is reported as 3. For the same compound, the “preference for degrading CDK17” value in experiment [14] is “strong preference for degrading CDK17”.

For the origin of these results see patent US20240269139A1, “COMPOUNDS FOR TARGETED PROTEIN DEGRADATION OF KINASES” (DANA-FARBER CANCER INSTITUTE, INC., priority 2020, published 2024).
